Data: ChEMBL document CHEMBL1212786 (Antimicrob Agents Chemother, 2010)

Tests used:
CYP1A2 [1] = biological target: T1, CYP1A2 (Homo sapiens, UniProt P05177); test: Induction of CYP1A2 in human hepatocytes at 2 uM after 72 hrs relative to control; assay type: ADME, cell-based, Hepatocyte; details: read-out: FC
T1 sequence (P05177 whole entry): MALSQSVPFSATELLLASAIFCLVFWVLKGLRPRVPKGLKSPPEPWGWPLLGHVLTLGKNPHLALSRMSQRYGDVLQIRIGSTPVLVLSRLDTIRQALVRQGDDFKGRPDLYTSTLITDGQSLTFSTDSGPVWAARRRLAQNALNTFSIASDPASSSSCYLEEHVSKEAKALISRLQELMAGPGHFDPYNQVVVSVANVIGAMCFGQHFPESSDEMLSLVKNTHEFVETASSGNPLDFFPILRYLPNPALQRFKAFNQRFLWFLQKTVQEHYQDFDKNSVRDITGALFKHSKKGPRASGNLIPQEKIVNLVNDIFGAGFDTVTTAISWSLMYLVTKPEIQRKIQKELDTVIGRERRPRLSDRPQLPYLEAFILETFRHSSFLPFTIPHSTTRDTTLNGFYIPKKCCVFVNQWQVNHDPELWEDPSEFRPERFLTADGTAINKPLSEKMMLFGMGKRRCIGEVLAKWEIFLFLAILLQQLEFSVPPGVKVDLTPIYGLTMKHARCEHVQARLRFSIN

CYP2B6 [2] = biological target: T2, CYP2B6 (Homo sapiens, UniProt P20813); test: Induction of CYP2B6 in human hepatocytes at 2 uM after 72 hr relative to control; assay type: ADME, cell-based, Hepatocyte; details: read-out: FC
T2 sequence (P20813 whole entry): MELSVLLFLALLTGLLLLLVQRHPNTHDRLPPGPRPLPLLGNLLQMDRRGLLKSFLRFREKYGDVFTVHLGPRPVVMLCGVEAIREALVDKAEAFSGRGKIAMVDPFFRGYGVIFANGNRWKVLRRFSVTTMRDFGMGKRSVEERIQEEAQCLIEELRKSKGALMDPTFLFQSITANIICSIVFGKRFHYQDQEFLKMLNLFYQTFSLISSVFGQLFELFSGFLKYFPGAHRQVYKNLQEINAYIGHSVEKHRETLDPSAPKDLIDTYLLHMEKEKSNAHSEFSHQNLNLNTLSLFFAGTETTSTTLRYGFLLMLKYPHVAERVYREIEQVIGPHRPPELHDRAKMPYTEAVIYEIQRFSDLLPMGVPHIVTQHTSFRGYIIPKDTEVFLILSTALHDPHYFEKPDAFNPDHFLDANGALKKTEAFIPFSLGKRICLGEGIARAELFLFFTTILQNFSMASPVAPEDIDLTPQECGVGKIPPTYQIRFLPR

CYP3A4 [3] = biological target: T3, CYP3A4 (Homo sapiens, UniProt P08684); test: Induction of CYP3A4 in human hepatocytes at 2 uM after 72 hrs relative to control; assay type: ADME, cell-based, Hepatocyte; details: read-out: FC
T3 sequence (P08684 whole entry): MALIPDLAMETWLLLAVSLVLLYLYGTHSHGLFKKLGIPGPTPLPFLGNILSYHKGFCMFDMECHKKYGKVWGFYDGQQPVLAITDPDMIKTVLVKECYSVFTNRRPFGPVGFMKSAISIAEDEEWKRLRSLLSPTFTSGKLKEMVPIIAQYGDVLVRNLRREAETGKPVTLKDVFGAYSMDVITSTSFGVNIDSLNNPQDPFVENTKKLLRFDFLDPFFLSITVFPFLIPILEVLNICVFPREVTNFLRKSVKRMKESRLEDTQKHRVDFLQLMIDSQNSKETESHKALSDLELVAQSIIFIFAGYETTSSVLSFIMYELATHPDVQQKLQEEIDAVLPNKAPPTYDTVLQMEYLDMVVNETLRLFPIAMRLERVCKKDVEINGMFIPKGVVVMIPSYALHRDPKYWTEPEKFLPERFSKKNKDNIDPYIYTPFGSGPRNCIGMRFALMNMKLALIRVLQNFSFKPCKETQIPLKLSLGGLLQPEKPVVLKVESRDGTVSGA

Hepatitis C virus = test: Antiviral activity against Hepatitis C virus infected in human Huh7ET cells assessed as inhibition of viral replication after 72 hrs by luciferase reporter gene assay; assay type: functional, organism-based, Hepacivirus hominis; details: Huh-7, 72 h
PBMC = test: Antiinflammatory activity in human PBMC assessed as inhibition of anti-CD3/CD28 antibody-induced IL-2 production treated for 1 hr before anti-CD3/CD28 antibody challenge measured after 6 hrs by immunosuppression assay; assay type: functional, cell-based
CYP2B6 [4] = biological target: T2, CYP2B6; test: Induction of CYP2B6 in human hepatocytes at 1000 uM after 72 hrs relative to control; assay type: ADME, cell-based, Hepatocyte; details: read-out: FC
CYP3A4 [5] = biological target: T3, CYP3A4; test: Induction of CYP3A4 in human hepatocytes at 1000 uM after 72 hrs relative to control; assay type: ADME, cell-based, Hepatocyte; details: read-out: FC
CYP1A2 [6] = biological target: T1, CYP1A2; test: Induction of CYP1A2 in human hepatocytes at 1000 uM after 72 hrs relative to control; assay type: ADME, cell-based, Hepatocyte; details: read-out: FC

## Cc1ccc2cc3c(ccc4ccccc43)c3c2c1CC3 [3-METHYLCHOLANTHRENE]
CYP1A2 [1]
  fold induction at 72 h, 2 µM: 21.2
CYP2B6 [2]
  fold induction at 72 h, 2 µM: 1.33
CYP3A4 [3]
  fold induction at 72 h, 2 µM: 0.97

## C/C=C/C[C@@H](C)[C@@H](O)[C@H]1C(=O)N[C@@H](CC)C(=O)N(C)CC(=O)N(C)[C@@H](CC(C)C)C(=O)N[C@@H](C(C)C)C(=O)N(C)[C@@H](CC(C)C)C(=O)N[C@@H](C)C(=O)N[C@H](C)C(=O)N(C)[C@@H](CC(C)C)C(=O)N(C)[C@@H](CC(C)C)C(=O)N(C)[C@@H](C(C)C)C(=O)N1C [CYCLOSPORINE]
Hepatitis C virus
  CC50: 5.62 µM
PBMC
  EC50: 0.0031 µM

## CCC1(c2ccccc2)C(=O)NC(=O)NC1=O [PHENOBARBITAL]
CYP2B6 [4]
  fold induction at 72 h, 1000 µM: 9.1
CYP3A4 [5]
  fold induction at 72 h, 1000 µM: 6.73
CYP1A2 [6]
  fold induction at 72 h, 1000 µM: 1.67
